A short description of one data set: in vitro. As to conditions: pig, PAMPA, pH 7.4. Background: PAMPA measures passive passage across an artificial lipid membrane.
For another data set, the target named is T1, recombinant hAChE (Homo sapiens, UniProt P22303).
T1 construct: purchased Sigma-Aldrich (Prague, Czech Republic)
In words: Kinetic study of hAChE inhibition. Format: biochemical. As to conditions: for type of inhibition: nonlinear regression with sum-of-squares F-test, p < 0.05; for Ki: nonlinear regression, ATCh 156–1250 µM. The source says:
The mode of interaction of the hAChE inhibition was elucidated for 1 and 2 using a kinetic study in order to gain information about the mode of inhibition and the binding site of the isolated alkaloids. Recombinant hAChE was used in this kinetic analysis of 1 and 2. […] The type of the inhibition mechanism was clarified by a nonlinear regression analysis. The results computed for each model type of inhibition (competitive, non-competitive, uncompetitive and mixed) were compared with the sum-of-squares F-test.
The kinetic study of hAChE inhibition was performed by using Ellman’s method (described above). […] Reactions were performed in triplicate. Vmax and Km values, respectively, of the Michaelis-Menten kinetics and Ki were calculated by non-linear regression from the substrate velocity curves. Linear regression was used for calculation of Lineweaver-Burk plots. All calculations were performed using the GraphPad Prism software.

For data set [1], the target named is T2, human recombinant acetylcholinesterase (hAChE) (Homo sapiens, UniProt P22303).
T2 construct: purchased Sigma-Aldrich (Prague, Czech Republic)
In words: biochemical. The note with it: for SI (selectivity index for hAChE): ratio IC50 hBChE / IC50 hAChE; for IC50: recombinant hAChE, ATCh substrate, pH 7.4, 37 °C, mean ± SEM of three measurements. An excerpt: (§1) Human recombinant acetylcholinesterase (hAChE; EC 3.1.1.7), human plasma butyrylcholinesterase (hBChE; EC 3.1.1.8), 5,5′-dithiobis(2-nitrobenzoic acid) (Ellman’s reagent, DTNB), phosphate buffer (PB, pH 7.4), dimethyl sulfoxide (DMSO), acetylthiocholine (ATCh), and butyrylthiocholine (BTCh) were purchased from Sigma-Aldrich (Prague, Czech Republic). Polystyrene Nunc 96-well microplates with flat bottom shape (ThermoFisher Scientific, Waltham, MA, USA) were utilized for measuring purposes of cholinesterase assays and the kinetic inhibition study.
(§2) The hAChE and hBChE inhibitory activity of the tested compounds was determined using a modified Ellman’s method. All the assays were carried out in 0.1 M KH2PO4/K2HPO4 buffer, pH 7.4. Enzyme solutions were prepared at an activity of 2.0 units/mL in 2 mL aliquots. The assay medium ([…]) consisted of 40 µL of 0.1 M phosphate buffer (pH 7.4), 20 µL of 0.01 M DTNB, 10 µL of enzyme, and 20 µL of 0.01 M substrate (ATCh iodide solution). […] The reaction started by addition of 20 µL of the substrate (ATCh for hAChE, BTCh for hBChE). […] Each concentration was assayed in triplicate.

Data set [2] addresses T3, human plasma butyrylcholinesterase (hBChE) (Homo sapiens, UniProt P06276).
T3 construct: Recombinant hAChE and plasma hBChE were used as sources of cholinesterases; purchased Sigma-Aldrich (Prague, Czech Republic); host or cells: human plasma
In words: hBChE inhibition, modified Ellman's method. The data set is classed as biochemical. The note with it: BTCh substrate, pH 7.4, 37 °C, mean ± SEM of three measurements.
From the text: as §1, §2
For orientation: In Ellman's method for cholinesterases, released thiocholine reacts with DTNB.

For data set [3], the system named is selected human carcinoma and non-carcinoma cells. As to conditions: read-out: cytotoxicity IC50; cited from earlier work.
For data set [4] the following is noted: Table S1, predictive penetration into the CNS.
Data set [5] concerns AChE (red blood cell ghosts). As to conditions: earlier screening, 25 °C, red blood cell ghosts as AChE source; cited from earlier work.

T2 sequence (P22303 32-614): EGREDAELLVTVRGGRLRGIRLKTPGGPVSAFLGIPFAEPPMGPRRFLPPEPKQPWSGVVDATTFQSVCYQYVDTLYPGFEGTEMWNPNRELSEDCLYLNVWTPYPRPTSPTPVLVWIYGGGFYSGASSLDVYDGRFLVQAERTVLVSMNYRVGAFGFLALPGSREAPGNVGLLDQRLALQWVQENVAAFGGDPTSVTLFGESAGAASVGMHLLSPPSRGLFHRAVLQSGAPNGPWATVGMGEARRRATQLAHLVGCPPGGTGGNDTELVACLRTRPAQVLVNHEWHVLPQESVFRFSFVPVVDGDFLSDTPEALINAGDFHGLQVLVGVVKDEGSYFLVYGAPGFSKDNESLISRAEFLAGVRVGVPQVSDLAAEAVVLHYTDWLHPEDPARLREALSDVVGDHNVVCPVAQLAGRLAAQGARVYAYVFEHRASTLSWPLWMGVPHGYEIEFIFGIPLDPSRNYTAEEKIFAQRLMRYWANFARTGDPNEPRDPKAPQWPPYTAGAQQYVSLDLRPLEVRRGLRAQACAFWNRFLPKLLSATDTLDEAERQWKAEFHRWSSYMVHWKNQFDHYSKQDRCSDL
T1 sequence (P22303 32-614): as above
T3 sequence (P06276 29-602): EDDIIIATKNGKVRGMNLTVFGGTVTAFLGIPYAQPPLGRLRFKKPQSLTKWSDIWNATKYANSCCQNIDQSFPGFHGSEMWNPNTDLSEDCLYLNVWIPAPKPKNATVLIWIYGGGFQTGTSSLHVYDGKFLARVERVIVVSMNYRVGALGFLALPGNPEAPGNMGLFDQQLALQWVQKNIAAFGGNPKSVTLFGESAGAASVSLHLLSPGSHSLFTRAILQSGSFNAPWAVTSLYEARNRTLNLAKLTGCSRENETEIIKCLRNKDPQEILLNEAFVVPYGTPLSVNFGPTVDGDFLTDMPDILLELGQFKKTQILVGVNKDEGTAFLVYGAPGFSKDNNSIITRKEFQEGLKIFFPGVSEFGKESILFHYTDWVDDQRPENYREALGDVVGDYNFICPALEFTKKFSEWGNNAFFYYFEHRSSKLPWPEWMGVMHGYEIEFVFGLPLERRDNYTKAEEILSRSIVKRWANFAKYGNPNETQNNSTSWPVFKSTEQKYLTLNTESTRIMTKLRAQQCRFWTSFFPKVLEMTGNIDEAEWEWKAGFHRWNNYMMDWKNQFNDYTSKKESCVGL

What is called Papp is a coefficient for how fast a substance crosses the barrier. In turn, `Cn1c(=O)c2c(ncn2C)n(C)c1=O` [caffeine, reference compound] displayed an apparent permeability coefficient (Papp) in the data set “in vitro” of 0.3 ×10⁻⁶ cm/s.
As usually defined, the Ki is a measure of affinity in units of concentration, obtained from inhibition or displacement. Usually IC50 stands for the concentration that inhibits the measured activity by half. As to `COc1ccc2c(c1OC)CN1CCc3cc4c(cc3[C@H]1[C@H]2C)OCO4` [Compound 1, (+)-thalictricavine], at recombinant hAChE, the type of inhibition entry is listed as “competitive” and the inhibition constant Ki came out at 174 ± 56.9 nM. Besides, in data set [1], the “SI (selectivity index for hAChE)” value is above 263 and the concentration for half-maximal inhibition (IC50) is 380 ± 50 nM. This compound showed a Papp in the data set “in vitro” of 2.5 ± 0.1 ×10⁻⁶ cm/s. For the same compound, the IC50 in data set [2] was above 100000 nM. The IC50 in data set [3] is above 10000 nM.
Regarding `COc1ccc2c(c1OC)CN1CCc3cc4c(cc3[C@H]1C2)OCO4` [Compound 2, (+)-canadine], the PAMPA-BBB prediction entry in data set [4] is given as “CNS +”. Further, on recombinant hAChE, the type of inhibition result is “competitive” and the Ki turned out to be 129 ± 44 nM. Moreover, the “IC50 value for AChE” value in data set [5] was “low micromolar range”. In data set [1], the “SI (selectivity index for hAChE)” value is given as above 143 and the 50% inhibitory concentration (IC50) was 700 ± 70 nM. Also, the Papp in the data set “in vitro” amounted to 5 ± 0.3 ×10⁻⁶ cm/s. Besides, in data set [2], the IC50 is above 100000 nM. Also, in data set [3], the IC50 is above 10000 nM.

Source of the values: paper PMC6480038, “In Vitro and In Silico Acetylcholinesterase Inhibitory Activity of Thalictricavine and Canadine and Their Predicted Penetration across the Blood-Brain Barrier” (Molecules, 2019).
